Laboratory results reported in patent US11175294B2, “Protein composition and methods for analysing microbiota” (UNIVERSITY OF OTTAWA, priority 2016, dated 2021).

How the values were obtained:
[1] = system: Akkermansia genus species in cultured microbiome; test: RapidAIM assay of an individual microbiome treated with berberine, species-level taxonomic quantification on MetaLab; format: cell-based; conditions: high concentration vs sample cultured without drug treatment
Source text: Developing RapidAIM in a multi-well plate format: microbiota can be inoculated and grown in culture media. Assays, performed in any multiwall format (e.g. 6 well to 96 well plate formats, or any other type of format, for example, using tubes) and can be titrated, examining at each stage whether the yield per well provides sufficient material for downstream analyses. The analysis can be performed using a workflow for metaproteome as described in Zhang et al. “MetaPro-IQ: a universal metaproteomic approach to studying human and mouse gut microbiota”, Microbiome, 2016 Jun. 24:4(1):31, doi: 10.1186/s40168-016-0176-z. The workflow uses the close-to-complete human or mouse gut microbial gene catalog as a database and uses an iterative database search strategy. An example of a high-through put experimental workflow for the RapidAIM has been established based on a 96-well format (FIG. 9). This workflow includes, (A) 96-well based microbiome culturing, and (B) 96-well based metaproteomics analysis.
As an example, RapidAIM was used to assay an individual a microbiome treated with a high, medium or low dose of berberine compared to the sample cultured without drug treatment (FIG. 10). The taxonomic composition at the species level were quantified in each of the cultured microbiome sample on the MetaLab bioinformatics platform.

human microbiota = test: SILAMi-based metaproteomics of microbiota cultured with or without monosaccharides; format: cell-based; conditions: 2.5 g/L monosaccharide vs non-treated control; for overall effect on the metaproteome: 3,158 quantified proteins
Protocol: Finally, it was tested whether the […] labelled-standard could be used to distinguish the effects of different monosaccharides on the microbiota. It will be understood that monosaccharides are used herein as an example of a compound that may have an effect on the microbiota. However, other compounds that have be introduced to a microbiota sample or to a subject of which a microbiota sample has been obtained, that may impact the microbiota, may be similarly analyzed as described herein. Overall, 18 samples cultured with or without 2.5 g/L of each monosaccharide (N-acetyl glucosamine or GlcNAc, mannose, galactose, fucose, or glucose) were analyzed, by […]-based metaproteomics which led to 3,158 quantified proteins. Two hundred and forty-six protein groups were identified as being differentially abundant as compared to the non-treated control group (Table 4): […]

Akkermansia spp = conditions: reported in other literature; cited from earlier work

Which “abundances of the species originating from the Akkermansia genus” value [1] does the source give for `COc1ccc2cc3[n+](cc2c1OC)CCc1cc2c(cc1-3)OCO2` [Berberine] here?
The value was “significantly increased”.

Which results are given for `CC(=O)N[C@H]1C(O)O[C@H](CO)[C@@H](O)[C@@H]1O` (some centres unmarked) [GlcNAc, N-acetyl glucosamine]?
change of GlcNAc degrading proteins (human microbiota): significant increase; change of asparagine synthase (human microbiota): significantly increased; overall effect on the metaproteome (human microbiota): most dramatic alterations of the metaproteome

Which “Akkermansia spp in the gut microbiome” value (Akkermansia spp) does the source give for `CN(C)C(=N)N=C(N)N` [Metformin] here?
The value was “increased”.

What does the source list for `C[C@H](O)[C@@H](O)[C@@H](O)[C@H](O)C=O` [fucose]?
change of cluster 206, mainly fucose utilization-related proteins (human microbiota): increased only in the fucose-treated microbiota; change of quantified fucose utilizing proteins in the fucose utilization pathway (human microbiota): all of the six quantified fucose utilizing proteins in the fucose utilization pathway were increased; overall effect on the metaproteome (human microbiota): smallest effect on the metaproteome
